pKi: −log10 of the molar value.
Target: T1, 5-hydroxytryptamine receptor 3A/3B (Rattus norvegicus, UniProt P35563+Q9JJ16)
T1 sequence (P35563 whole entry): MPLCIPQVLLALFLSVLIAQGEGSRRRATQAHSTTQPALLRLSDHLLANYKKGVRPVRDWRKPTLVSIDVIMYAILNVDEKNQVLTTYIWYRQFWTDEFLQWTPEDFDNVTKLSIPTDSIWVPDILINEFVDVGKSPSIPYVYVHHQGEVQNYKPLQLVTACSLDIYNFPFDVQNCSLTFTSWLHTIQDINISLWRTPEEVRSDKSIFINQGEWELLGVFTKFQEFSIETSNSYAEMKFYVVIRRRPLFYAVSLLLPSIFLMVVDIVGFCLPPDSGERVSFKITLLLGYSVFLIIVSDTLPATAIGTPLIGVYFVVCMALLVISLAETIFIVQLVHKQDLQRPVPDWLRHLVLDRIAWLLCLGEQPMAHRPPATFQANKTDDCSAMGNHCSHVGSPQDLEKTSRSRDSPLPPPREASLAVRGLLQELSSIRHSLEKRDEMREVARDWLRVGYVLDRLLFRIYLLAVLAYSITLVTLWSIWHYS
T1 sequence (Q9JJ16 whole entry): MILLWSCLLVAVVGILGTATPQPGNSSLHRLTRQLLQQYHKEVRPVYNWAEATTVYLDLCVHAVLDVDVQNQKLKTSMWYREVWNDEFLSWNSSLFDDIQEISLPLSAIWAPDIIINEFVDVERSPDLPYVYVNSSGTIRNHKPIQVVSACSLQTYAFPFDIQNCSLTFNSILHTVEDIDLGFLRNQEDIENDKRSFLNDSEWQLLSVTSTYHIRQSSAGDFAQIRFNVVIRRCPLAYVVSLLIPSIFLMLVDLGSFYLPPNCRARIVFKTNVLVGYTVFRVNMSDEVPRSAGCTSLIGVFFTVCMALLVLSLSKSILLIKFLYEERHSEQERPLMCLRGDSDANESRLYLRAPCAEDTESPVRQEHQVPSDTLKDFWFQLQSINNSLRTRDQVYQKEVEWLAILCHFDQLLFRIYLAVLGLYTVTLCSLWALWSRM
Assay: Binding affinity to 5-hydroxytryptamine 3 receptor was determined in rat cerebro cortical membranes using [3H]quipazine.

## COc1cc(N)c(Cl)cc1C(=O)N[C@H]1CN2CCC1CC2 [4-Amino-N-(R)-1-aza-bicyclo[2.2.2]oct-3-yl-5-chloro-2-methoxy-benzamide]
  pKi: 8.49
